In brackets after ≈: the same amount, converted by molar mass. Activity calls are given as the source filed them. The rule behind the calls is not given here. Peptide text beside a SMILES is read from it.
Columns and labels:
Staphylococcus aureus [1] = test: Antibacterial activity against Staphylococcus aureus ATCC 25923 incubated for 16 to 18 hrs by broth microdilution method; assay type: functional; conditions: time 16-18 hrs
Acinetobacter baumannii = test: Antibacterial activity against Acinetobacter baumanni ATCC 19606 incubated for 16 to 18 hrs by broth microdilution method; assay type: functional; conditions: time 16-18 hrs
Escherichia coli [2] = test: Antibacterial activity against Escherichia coli ATCC 25922 incubated for 16 to 18 hrs by broth microdilution method; assay type: functional; conditions: time 16-18 hrs
Escherichia coli [3] = test: Bactericidal activity against Escherichia coli ATCC 25922 incubated for 16 hrs; assay type: functional
Staphylococcus aureus [4] = test: Bactericidal activity against Staphylococcus aureus ATCC 25923 incubated for 16 hrs; assay type: functional
Pseudomonas aeruginosa = test: Antibacterial activity against Pseudomonas aeruginosa ATCC BAA-427 incubated for 16 to 18 hrs by broth microdilution method; assay type: functional; conditions: time 16-18 hrs
Staphylococcus aureus [5] = test: Antibacterial activity against methicillin-resistant Staphylococcus aureus ATCC 33591 incubated for 16 to 18 hrs by broth microdilution method; assay type: functional; conditions: time 16-18 hrs
Staphylococcus aureus [6] = test: Antibacterial activity against methicillin-resistant Staphylococcus aureus ATCC BAA-44 incubated for 16 to 18 hrs by broth microdilution method; assay type: functional; conditions: time 16-18 hrs
Escherichia coli [7] = test: Induction of cell membrane damage in Escherichia coli ATCC 25922 at 5 times MIC incubated for 60 mins by PI staining based FACS analysis; assay type: functional, organism-based
Escherichia coli [8] = test: Induction of cell membrane damage in Escherichia coli ATCC 25922 at 1 to 5 times MIC by SYTOX green fluorescence based analysis; assay type: functional, organism-based
Staphylococcus aureus [9] = test: Induction of cell membrane damage in Staphylococcus aureus ATCC 25923 at 1 to 5 times MIC by SYTOX green fluorescence based analysis; assay type: functional, organism-based
[10] = Hemolytic activity against human RBCs upto 100 uM incubated for 45 mins by absorbance based assay; assay type: toxicity, cell-based, Erythrocyte; conditions: red blood cells (erythrocytes), read-out: Activity
[11] = Cytotoxicity against mouse 3T3-L1 cells assessed as cell viability upto 60 uM incubated for 4 hrs by MTT assay relative to control; assay type: toxicity, cell-based; conditions: read-out: Activity
Staphylococcus aureus [12] = test: Induction of cell membrane damage in Staphylococcus aureus ATCC 25923 at 5 times MIC incubated for 60 mins by PI staining based FACS analysis; assay type: functional, organism-based
Staphylococcus aureus [13] = test: Induction of cell membrane damage in Staphylococcus aureus ATCC 25923 at 5 times MIC incubated for 60 mins by SEM analysis; assay type: functional, organism-based
Staphylococcus aureus [14] = test: Antimicrobial activity against vancomycin-resistant Staphylococcus aureus; assay type: functional, organism-based
Staphylococcus aureus [15] = test: Antibacterial activity against Staphylococcus aureus ATCC 25923 infected in BALB/c mouse assessed as bacterial load in lung at 30 mg/kg, ip measured after 18 hrs (Rvb ~ 5 x10^6); assay type: functional
Erythrocyte = test: Hemolytic activity against human RBCs upto 70 uM incubated for 45 mins by absorbance based assay; assay type: toxicity, cell-based; conditions: 0.75 h
[16] = Acute toxicity in BALB/c mouse assessed as animal survival at 50 mg/kg, ip measured for 7 days; assay type: organism-based; conditions: in vivo, 168 h, time 7 day
[17] = Toxicity in BALB/c mouse assessed as animal death at 15 to 30 mg/kg, ip measured for 18 hrs; assay type: organism-based; conditions: in vivo, dose 15-30 mg/kg
Escherichia coli [18] = test: Induction of cell membrane damage in Escherichia coli ATCC 25922 assessed as membrane blebbing at 5 times MIC incubated for 60 mins by SEM analysis; assay type: functional, organism-based
Staphylococcus aureus [19] = test: Induction of cell membrane damage in Staphylococcus aureus ATCC 25923 assessed as bacterial content leakage at 5 times MIC incubated for 60 mins by SEM analysis; assay type: functional, organism-based
Staphylococcus aureus [20] = test: Induction of cell membrane damage in Staphylococcus aureus ATCC 25923 assessed as membrane distortion at 5 times MIC incubated for 60 mins by SEM analysis; assay type: functional, organism-based
Staphylococcus aureus [21] = test: Induction of cell membrane damage in Staphylococcus aureus ATCC 25923 assessed as membrane blebbing at 5 times MIC incubated for 60 mins by SEM analysis; assay type: functional, organism-based
Escherichia coli [22] = test: Induction of cell membrane damage in Escherichia coli ATCC 25922 assessed as wrinkling on bacterial surface at 5 times MIC incubated for 60 mins by SEM analysis; assay type: functional, organism-based
Staphylococcus aureus [23] = test: Antibacterial activity against Staphylococcus aureus ATCC 25923 infected in BALB/c mouse assessed as bacterial load in blood at 30 mg/kg, ip measured after 18 hrs (Rvb ~ 6 x10^6); assay type: functional
Staphylococcus aureus [24] = test: Antibacterial activity against Staphylococcus aureus ATCC 25923 infected in BALB/c mouse assessed as bacterial load in liver at 30 mg/kg, ip measured after 18 hrs (Rvb ~ 1.75 x10^7); assay type: functional
Staphylococcus aureus [25] = test: Bactericidal activity against Staphylococcus aureus VRS1 at 4 times MIC incubated for 6 hrs by time kill assay relative to control; assay type: functional
[26] = Acute toxicity in BALB/c mouse assessed as signs of toxicity at 50 mg/kg, ip measured for 7 days; assay type: organism-based; conditions: in vivo, 168 h, time 7 day
Staphylococcus aureus [27] = test: Antibacterial activity against Staphylococcus aureus ATCC 25923 infected in BALB/c mouse assessed as bacterial load in spleen at 30 mg/kg, ip measured after 18 hrs (Rvb ~ 1 x10^7); assay type: functional
Staphylococcus aureus [28] = test: Bactericidal activity against Staphylococcus aureus VRS1 at 1 to 4 times MIC by time kill assay; assay type: functional, organism-based; conditions: time <= 24.0 hrs
Staphylococcus aureus [29] = test: Antimicrobial activity against methicillin-resistant Staphylococcus aureus; assay type: functional, organism-based

SMILES: CN(C)[C@@H]1C(O)=C(C(N)=O)C(=O)[C@@]2(O)C(O)=C3C(=O)c4c(O)cccc4[C@@](C)(O)[C@H]3C[C@@H]12 [TETRACYCLINE]
- MIC (Staphylococcus aureus [1]): 0.39 µM (≈ 0.173 µg/mL)
- MIC (Acinetobacter baumannii): 0.39 µM (≈ 0.173 µg/mL)
- MIC (Escherichia coli [2]): 0.78 µM (≈ 0.347 µg/mL)
- MBC (Escherichia coli [3]): 0.78 µM (≈ 0.347 µg/mL)
- MBC (Staphylococcus aureus [4]): 0.78 µM (≈ 0.347 µg/mL)
- MIC (Pseudomonas aeruginosa): 1.56 µM (≈ 0.693 µg/mL)
- MIC (Staphylococcus aureus [5]): 0.78 µM (≈ 0.347 µg/mL)
- MIC (Staphylococcus aureus [6]): 0.78 µM (≈ 0.347 µg/mL)

SMILES: COC(=O)[C@H](CCCc1cc2ccc3ccc4ccc5ccc1c1c5c4c3c21)NC(=O)CNC(=O)[C@@H](N)CCCCN
- MIC (Staphylococcus aureus [1]): 12.5 µM (≈ 7.06 µg/mL)
- Activity (Escherichia coli [7]): Active
- MIC (Acinetobacter baumannii): 50 µM (≈ 28.2 µg/mL)
- Activity (Escherichia coli [8]): inactive
- MIC (Escherichia coli [2]): 50 µM (≈ 28.2 µg/mL)
- Activity (Staphylococcus aureus [9]): Active
- MBC (Escherichia coli [3]): 50 µM (≈ 28.2 µg/mL)
- MBC (Staphylococcus aureus [4]): 12.5 µM (≈ 7.06 µg/mL)
- MIC (Pseudomonas aeruginosa): 50 µM (≈ 28.2 µg/mL)
- MIC (Staphylococcus aureus [5]): 12.5 µM (≈ 7.06 µg/mL)
- MIC (Staphylococcus aureus [6]): 12.5 µM (≈ 7.06 µg/mL)
- hemolysis at 0.75 h, up to 100 µM [10]: ~5%
- viability at 4 h, up to 60 µM [11]: 62%
- Activity (Staphylococcus aureus [12]): Active

SMILES: CC[C@H](C)[C@H](NC(=O)[C@H](CCCNC(=N)N)NC(=O)CNC(=O)[C@H](CC(C)C)NC(=O)[C@H](Cc1ccccc1)NC(=O)[C@H](CCCCN)NC(=O)[C@H](CO)NC(=O)[C@H](Cc1ccccc1)NC(=O)[C@H](Cc1c[nH]c2ccccc12)NC(=O)[C@H](CCC(N)=O)NC(=O)[C@@H](NC(=O)[C@@H](N)Cc1ccccc1)C(C)C)C(=O)N[C@@H](CC(C)C)C(N)=O (H-FVQWFSKFLGRIL-NH2)
- Activity (Staphylococcus aureus [13]): Active

SMILES: COC(=O)[C@H](Cc1cc2ccc3ccc4ccc5ccc1c1c5c4c3c21)NC(=O)[C@@H](N)CCCCN.Cl.Cl
- Activity (Staphylococcus aureus [14]): Active
- MIC (Staphylococcus aureus [1]): 25 µM
- Activity (Escherichia coli [7]): Active
- Activity (Staphylococcus aureus [15]): ~4.5 10^4CFU/ml
- Activity (Erythrocyte): Non-Toxic
- MIC (Acinetobacter baumannii): 200 µM
- Activity [16]: Non-Toxic
- Activity (Escherichia coli [8]): inactive
- MIC (Escherichia coli [2]): 50 µM
- Activity [17]: Non-Toxic
- Activity (Staphylococcus aureus [9]): Active
- MBC (Escherichia coli [3]): 50 µM
- MBC (Staphylococcus aureus [4]): 50 µM
- Activity (Escherichia coli [18]): Active
- Activity (Staphylococcus aureus [19]): Active
- MIC (Pseudomonas aeruginosa): 200 µM
- Activity (Staphylococcus aureus [20]): Active
- Activity (Staphylococcus aureus [21]): Active
- MIC (Staphylococcus aureus [5]): 25 µM
- MIC (Staphylococcus aureus [6]): 12.5 µM
- Activity (Escherichia coli [22]): Active
- Activity (Staphylococcus aureus [23]): ~7 10^4CFU/ml
- Activity (Staphylococcus aureus [24]): ~1.2 10^6CFU/ml
- Activity (Staphylococcus aureus [25]): 100%
- Activity [26]: Non-Toxic
- Activity (Staphylococcus aureus [27]): ~6.5 10^5CFU/ml
- viability at 4 h, up to 60 µM [11]: 71%
- Activity (Staphylococcus aureus [12]): Active
- Activity (Staphylococcus aureus [28]): Dose-Dependent Effect
- Activity (Staphylococcus aureus [29]): Active

SMILES: COC(=O)[C@H](CCCc1cc2ccc3ccc4ccc5ccc1c1c5c4c3c21)NC(=O)[C@@H](N)CCCCN
- MIC (Staphylococcus aureus [1]): 12.5 µM (≈ 6.35 µg/mL)
- Activity (Escherichia coli [7]): Active
- MIC (Acinetobacter baumannii): 25 µM (≈ 12.7 µg/mL)
- Activity (Escherichia coli [8]): inactive
- MIC (Escherichia coli [2]): 25 µM (≈ 12.7 µg/mL)
- Activity (Staphylococcus aureus [9]): Active
- MBC (Escherichia coli [3]): 25 µM (≈ 12.7 µg/mL)
- MBC (Staphylococcus aureus [4]): 12.5 µM (≈ 6.35 µg/mL)
- Activity (Escherichia coli [18]): Active
- Activity (Staphylococcus aureus [19]): Active
- MIC (Pseudomonas aeruginosa): 25 µM (≈ 12.7 µg/mL)
- Activity (Staphylococcus aureus [20]): Active
- Activity (Staphylococcus aureus [21]): Active
- MIC (Staphylococcus aureus [5]): 12.5 µM (≈ 6.35 µg/mL)
- MIC (Staphylococcus aureus [6]): 12.5 µM (≈ 6.35 µg/mL)
- Activity (Escherichia coli [22]): Active
- viability at 4 h, up to 60 µM [11]: 41%
- Activity (Staphylococcus aureus [12]): Active
